Test [1] deals with BxPC3 pancreatic cancer cells. As to the kind of experiment: Confocal fluorescence microscopy, uptake and subcellular distribution. It counts as cell-based, human. Conditions: BxPC3, 5 μM P1A1 or equivalent, 1 h and 12 h. Here is the method:
BxPC3 cells were seeded onto chamber slides (Nunc, Rochester, N.Y.) and allowed to attach for 48 h. Cells were then treated with 5 μM P1A1, P1A1@MSNLP-COOH-LIP10 at an equivalent concentration of drug, or vehicle. The medium was aspirated and cells were co-stained by incubating with 75 nM Lysotracker Red in complete medium for 1 h. Cells were washed 3× with PBS and fixed in 4% formaldehyde/PBS for 15 min. After another three PBS washes, cover slips were mounted onto 4-well chamber slides using vectashield HardSet mounting medium (Vector Labs, Burlingame, Calif.) and stored at 4° C. until ready to use. Images were collected using a Zeiss LSM 710 confocal microscope (Carl Zeiss MicroImaging, Thornwood, N.Y.) using a 63× (PLAN Oil APO, 1.4 NA) objective lens. All image channels were acquired in a sequential mode to minimize excitation cross talk and emission bleed-through. […] For comparative fluorescence intensity analysis, great care was taken to equalize excitation power, pinhole settings, PMT gain, and offset values across and within imaging sessions for each respective channel. […] Where necessary, post-acquisition contrast adjustments were applied to the entire image, and processing was identical in all fluorescence channels. […]

For a further test, the system named is BxPC3 cells. Briefly: Flow cytometry cell cycle analysis. Conditions: BxPC3, 48 h, micromolar-to-submicromolar concentrations; dinitrate salt. It counts as cell-based, human. Here is the method: BxPC3 cells were treated with P1A1@MSNLP-COOH-LIP10, P1A1, or MSNLP-COOH-LIP10 for 48 h at the indicated concentrations. Cells were gently trypsinized, washed in PBS, fixed in ice-cold EtOH:PBS (1:1) at equivalent cell concentrations, and stored at −20° C. Cells were washed with PBS, stained using FxCycle PI/RNase staining solution (Molecular Probes, Eugene, Oreg.) and assessed by flow cytometry using an Accuri C6 (BD Biosciences, San Jose, Calif.). Data was analyzed using Modfit software v3.3.

“Also recorded” adds a separate entry of the source.

For the substance “[PtCl(en)(N-[acridin-9-ylaminoethyl]-N-methylpropionamidine)] dinitrate salt [Compound P1A1]”, the “uptake and subcellular distribution” value in test [1] is listed as “accumulates rapidly (about 1 h) in cells to produce blue fluorescence associated with the entire cytoplasm and, to a lesser extent, the nuclear region”. In the test with BxPC3 cells, the “effect on cell cycle distribution” value is on record as “robust S phase arrest; also recorded: sub-G1 population at the highest dose”.

The record behind these values is patent US20190290685A1, “COMPOSITIONS AND ASSOCIATED METHODS OF MESOPOROUS NANOPARTICLES COMPRISING PLATINUM-ACRIDINE MOLECULES” (Wake Forest University, priority 2016, published 2019).
